These results are taken from US20110313001A1, “TRIAZOLE DERIVATIVES FOR TREATMENT OF ALZHEIMER'S DISEASE” (priority 2008, published 2011).

pIC50: −log10 of the molar value. Counter-ions that a name gives are not always drawn.

This test deals with Aβ(1-42). The test is described as follows: Cell-based γ-secretase assay, Aβ(1-42) inhibition. Particulars: Homo sapiens; SH-SY5Y neuroblastoma cells overexpressing SPA4CT. The procedure:
Cell-Based γ-Secretase Assay
Human SH-SY5Y neuroblastoma cells overexpressing the direct γ-secretase substrate SPA4CT were induced with sodium butyrate (10 mM) for 4 hours prior to plating. Cells were plated at 35,000 cells/well/100 μl in 96-well plates in phenol red-free MEM/10% FBS, 50 mM HEPES, 1% Glutamine and incubated for 2 hrs at 37° C., 5% CO2.
Compounds for testing were diluted into Me2SO to give a ten point dose-response curve. Typically 10 μl of these diluted compounds in Me2SO were further diluted into 182 μl dilution buffer (phenol red-free MEM/10% FBS, 50 mM HEPES, 1% Glutamine) and 10 μl of each dilution was added to the cells in 96-well plates (yielding a final Me2SO concentration of 0.5%). Appropriate vehicle and inhibitor controls were used to determine the window of the assay.
After incubation overnight at 37° C., 5% CO2, 25 μl and 50 μl media were transferred into a standard Meso avidin-coated 96-well plate for detection of Aβ(40) and Aβ(42) peptides, respectively. 25 μl Meso Assay buffer (PBS, 2% BSA, 0.2% Tween-20) was added to the Aβ(40) wells followed by the addition of 25 μl of the respective antibody premixes to the wells:
Aβ(40) premix: 1 μg/ml ruthenylated G2-10 antibody, 4 μg/ml; and biotinylated 4G8 antibody diluted in Origen buffer
Aβ(42) premix: 1 μg/ml ruthenylated G2-11 antibody, 4 μg/ml; and biotinylated 4G8 antibody diluted in Origen buffer
(Biotinylated 4G8 antibody supplied by Signet Pathology Ltd; G2-10 and G2-11 antibodies supplied by Chemicon)
After overnight incubation of the assay plates on a shaker at 4° C., the Meso Scale Sector 6000 Imager was calibrated according to the manufacturer's instructions. After washing the plates 3 times with 150 μl of PBS per well, 150 μl Meso Scale Discovery read buffer was added to each well and the plates were read on the Sector 6000 Imager according to the manufacturer's instructions.
LD50 and IC50 values for inhibition of Aβ(40) and Aβ(42) were calculated by nonlinear regression fit analysis using the appropriate software (eg. Excel fit). The total signal and the background were defined by the corresponding Me2SO and inhibitor controls.
As for `COc1cc(-c2cn(Cc3cc(C(F)(F)F)cc(C(F)(F)F)c3)nn2)ccc1-c1ccnc(C)c1` [Example 1, 4-{4-[1-(3,5-Bis-trifluoromethyl-benzyl)-1H-1,2,3-triazol-4-yl]-2-methoxy-phenyl}-2-methyl-pyridine trifluoromethansulfonate salt], the negative-log IC50 (pIC50) – broadly, the negative decadic logarithm of the IC50, by convention in mol/L – was 6.69.
Molecule `COc1cc(-c2cn(Cc3ccc(C(C)(C)C)cc3)nn2)ccc1-c1ccnc(C)c1` [Example 3] had a pIC50 of 6.47.
Turning to `COc1cc(-c2cn(Cc3cc(F)cc(Cl)c3)nn2)ccc1-c1ccnc(C)c1` [Example 4], the pIC50 was 6.22.
The same measure for `COc1cc(-c2cn(Cc3ccc(-c4nc5ccccc5o4)cc3)nn2)ccc1-c1ccnc(C)c1` [Example 5]: 6.41; for `COc1cc(-c2cn(Cc3ccc4c(c3)C(C)(C)CCC4(C)C)nn2)ccc1-c1ccnc(C)c1` [Example 6]: 6.76.
